Measured values from article PMC6668022 (Pharmaceutical research, 2019).
Values joined by “and” are separate entries in the source; they are usually repeats but may differ in a detail not shown here. Identical values can stand only once. “Also recorded” adds a separate entry of the source. Like-named read-outs stand apart in the source and are kept apart here.

Assays:
EBOV [1] = experiment: microbe, parasite or virus in culture; format: cell-based, Ebola virus
HeLa cells = conditions: read-out: HeLa CC50; n=2
EBOV [2] = conditions: in vivo, 30 mg/kg/day; cited from earlier work
[3] = system: VP35-nucleoprotein interface; conditions: cited from earlier work
in vitro = conditions: human
[4] = read-out: EC50 Activity against EBOV, n=4
[5] = Zaire ebolavirus, HeLa, 24 h, read-out: EC50 Activity against EBOV, n=4

Question: Which “EC50 Activity against EBOV” value (EBOV [1]) does the source give for `O=C(O)c1cccnc1` [Nicotinic acid, reference compound] here?
Answer: Its value is “inactive”.

Question: Which EC50 (EBOV [1]; [4]) does the source give for `CC(=O)OCCc1ccccc1` [Phenethyl acetate] here?
Answer: The EC50 was 10 µM and 10.4 µM.

Question: And the CC50 (HeLa cells)?
Answer: Its CC50 is greater than 50 µM.

Question: With `CCN(CC)CCOc1ccc2c(c1)C(=O)c1cc(OCCN(CC)CC)ccc1-2` [tilorone] as the compound, how does the “efficacy in a mouse model of EBOV infection” value (EBOV [2]) read?
Answer: Its value is 100%.

Question: For `CC(C)[C@@H]1CC[C@@H](C)C[C@H]1O` [L- menthol], which “EC50 Activity against EBOV” value (EBOV [1]; n=4) is on record?
Answer: The value was “no appreciable activity; also recorded: inactive”.

Question: For `Cc1ccc(C(=O)c2cc(O)c(O)c([N+](=O)[O-])c2)cc1` [tolcapone], which IC50 [3] is on record?
Answer: The IC50 was 2 µM.

Question: What does the source list for `C=CCc1ccc(O)c(OC)c1` [Eugenol]?
Answer: EC50 (EBOV [1]; [5]): 1.3 ± 0.5 µM; CC50 (in vitro): > 50 µM

Question: For `CC(=O)OCc1ccccc1` [Benzyl acetate], which EC50 (EBOV [1]; [5]) is on record?
Answer: Its EC50 is 10 µM.

Question: What about the EC50 (EBOV [1]; [4]) of the same compound?
Answer: The EC50 was 10.7 ± 5 µM.

Question: What about the CC50 (in vitro) of the same compound?
Answer: The CC50 was greater than 50 µM.

Question: For `NC(=O)c1cccnc1` [Nicotinamide, reference compound], which “EC50 Activity against EBOV” value (EBOV [1]; n=4) is on record?
Answer: Its value is “inactive”.

Question: For `COc1ccc(C=O)cc1` [P-anisaldehyde], which EC50 (EBOV [1]; [5]) is on record?
Answer: The EC50 was 2.8 µM.

Question: What about the EC50 (EBOV [1]; [4]) of the same compound?
Answer: The EC50 was 2.9 ± 0.6 µM.

Question: And the CC50 (in vitro)?
Answer: Its CC50 is greater than 50 µM.
